# US7652022B2, “Diaryl urea derivatives useful for the treatment of protein kinase dependent diseases” (Novartis AG, priority 2002, dated 2010)
# Biological target: T1, human VEGF-R2 receptor (KDR) (Homo sapiens, UniProt P35968)
# T1 construct: expressed in transfected cells
# Assay: Inhibition of VEGF-induced VEGF-R2 (KDR) autophosphorylation in transfected CHO cells, sandwich ELISA
# Assay type: cell-based
# Conditions: % inhibition at 10 μM
# Experimental: The inhibition of VEGF-induced receptor autophosphorylation can be confirmed with a further in vitro experiments in cells such as transfected CHO cells, which permanently express human VEGF-R2 receptor (KDR), are seeded in complete culture medium (with 10% fetal calf serum=FCS) in 6-well cell-culture plates and incubated at 37° C. under 5% CO2 until they show about 80% confluency. The compounds to be tested are then diluted in culture medium (without FCS, with 0.1% bovine serum albumin) and added to the cells. (Controls comprise medium without test compounds). After two hours of incubation at 37° C., recombinant VEGF is added; the final VEGF concentration is 20 ng/ml. After a further five minutes incubation at 37° C., the cells are washed twice with ice-cold PBS (phosphate-buffered saline) and immediately lysed in 100 μl lysis buffer per well. The lysates are then centrifuged to remove the cell nuclei, and the protein concentrations of the supernatants are determined using a commercial protein assay (BIORAD). The lysates can then either be immediately used or, if necessary, stored at −20° C.
# The plates are then washed and the remaining free protein-binding sites are saturated with 3% TopBlock® (Juro, Cat. # TB232010) in phosphate buffered saline with Tween 20® (polyoxyethylen(20)sorbitane monolaurate, ICI/Uniquema) (PBST). The cell lysates (20 μg protein per well) are then incubated in these plates overnight at 4° C. together with an antiphosphotyrosine antibody coupled with alkaline phosphatase (PY20:AP from Zymed). […] The luminescence is measured in a Packard Top Count Microplate Scintillation Counter. The difference between the signal of the positive control (stimulated with VEGF) and that of the negative control (not stimulated with VEGF) corresponds to VEGF-induced VEGF-R2 phosphorylation (=100%). The activity of the tested substances is calculated as percent inhibition of VEGF-induced VEGF-R2 phosphorylation, wherein the concentration of substance that induces half the maximum inhibition is defined as the IC50 (inhibitory dose for 50% inhibition). […]
# T1 sequence (P35968 20-1356): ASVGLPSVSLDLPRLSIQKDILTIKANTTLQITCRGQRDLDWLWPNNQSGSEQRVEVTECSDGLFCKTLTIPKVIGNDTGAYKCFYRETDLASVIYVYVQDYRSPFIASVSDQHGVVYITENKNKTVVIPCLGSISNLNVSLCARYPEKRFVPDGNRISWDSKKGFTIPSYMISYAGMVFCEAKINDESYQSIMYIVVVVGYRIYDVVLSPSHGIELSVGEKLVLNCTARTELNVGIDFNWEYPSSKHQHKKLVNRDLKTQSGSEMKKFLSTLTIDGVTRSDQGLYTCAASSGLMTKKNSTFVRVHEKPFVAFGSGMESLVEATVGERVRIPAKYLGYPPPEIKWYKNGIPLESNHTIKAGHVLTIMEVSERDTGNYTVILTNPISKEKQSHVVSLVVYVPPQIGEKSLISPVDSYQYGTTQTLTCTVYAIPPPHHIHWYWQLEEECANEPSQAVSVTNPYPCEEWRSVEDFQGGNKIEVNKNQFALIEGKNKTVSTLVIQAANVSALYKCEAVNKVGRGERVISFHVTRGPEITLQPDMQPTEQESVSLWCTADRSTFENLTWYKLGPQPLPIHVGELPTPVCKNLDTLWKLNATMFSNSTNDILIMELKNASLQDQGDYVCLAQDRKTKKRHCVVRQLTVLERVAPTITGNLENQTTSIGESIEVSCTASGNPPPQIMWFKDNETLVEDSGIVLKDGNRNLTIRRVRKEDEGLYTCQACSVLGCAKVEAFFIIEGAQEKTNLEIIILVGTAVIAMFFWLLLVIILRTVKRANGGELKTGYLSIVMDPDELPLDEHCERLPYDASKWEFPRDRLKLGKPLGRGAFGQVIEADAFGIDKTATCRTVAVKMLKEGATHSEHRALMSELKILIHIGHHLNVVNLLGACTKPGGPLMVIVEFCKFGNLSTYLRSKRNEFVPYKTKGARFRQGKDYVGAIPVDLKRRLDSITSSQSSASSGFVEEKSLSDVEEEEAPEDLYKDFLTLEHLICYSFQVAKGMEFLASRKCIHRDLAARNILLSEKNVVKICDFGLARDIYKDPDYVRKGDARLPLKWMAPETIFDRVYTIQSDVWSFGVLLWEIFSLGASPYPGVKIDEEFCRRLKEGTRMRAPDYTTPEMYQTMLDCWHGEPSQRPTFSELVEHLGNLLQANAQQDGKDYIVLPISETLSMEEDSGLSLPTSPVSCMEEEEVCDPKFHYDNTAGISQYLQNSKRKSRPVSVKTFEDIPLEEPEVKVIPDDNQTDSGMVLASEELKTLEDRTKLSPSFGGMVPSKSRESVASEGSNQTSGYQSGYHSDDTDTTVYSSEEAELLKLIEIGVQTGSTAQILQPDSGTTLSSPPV
row,KDR trans (% at 10 μM) [%],Structure (SMILES)
1,99,Cc1ccc(NC(=O)Nc2ccc(Oc3ccncc3)cc2)cc1 [Example 4]
2,99,CCc1ccc(NC(=O)N(C)c2ccc(Oc3ccncc3)cc2)cc1 [Example 5]
3,100,CN(C(=O)Nc1cccc(C(F)(F)F)c1)c1ccc(Oc2ccncc2)cc1 [Example 6]
4,97,CCCc1ccc(NC(=O)N(C)c2ccc(Oc3ccncc3)cc2)cc1 [Example 7]
5,78,Cc1ccc(NC(=O)N(C)c2ccc(Oc3ccncc3)cc2)cc1 [Example 8]
6,92,O=C(Nc1ccc(Oc2ccncc2)cc1)Nc1ccc(Br)c(C(F)(F)F)c1 [Example 9]
7,100,O=C(Nc1ccc(Oc2ccncc2)cc1)Nc1ccc(OCC(F)(F)F)c(C(F)(F)F)c1 [Example 10]
8,100,COc1cc(NC(=O)Nc2ccc(Oc3ccncc3)cc2)cc(C(F)(F)F)c1 [Example 11]
9,97,CCCc1ccc(NC(=O)Nc2ccc(Cc3ccncc3)cc2)cc1 [Example 12]
10,98,CCc1ccc(NC(=O)Nc2ccc(Cc3ccncc3)cc2)cc1 [Example 13]
11,97,Cc1ccc(NC(=O)Nc2ccc(Cc3ccncc3)cc2)cc1 [Example 14]
12,99,O=C(Nc1ccc(Cc2ccncc2)cc1)Nc1cccc(C(F)(F)F)c1 [Example 15]
13,99,"CCc1ccc(NC(=O)Cc2ccc(Oc3ccncc3)cc2)cc1 [Example 16, N-(4-pyridin-4-yl-oxy-phenyl)acetyl-(4-ethyl-phenyl)-amide]"
14,96,Cc1ccc(NC(=O)Cc2ccc(Oc3ccncc3)cc2)cc1 [Example 17]
15,99,CCCc1ccc(NC(=O)Cc2ccc(Oc3ccncc3)cc2)cc1 [Example 18]
16,86,"O=C(Nc1cccc(C(F)(F)F)c1)N1CCc2cc(Oc3ccncc3)ccc21 [Example 19, 5(4-pyridyloxy)-N-(3-trifluoromethyl-phenyl)amino-carbonyl-2,3-dihydroindole]"
17,93,O=C(Nc1cccc(C(F)(F)F)c1)N1CCCc2cc(Oc3ccncc3)ccc21 [Example 20]
18,100,"O=C(Nc1ccc(Oc2cc(Cl)ncn2)cc1)Nc1cccc(C(F)(F)F)c1 [Example 21, N-(4-(6-Chloropyrimidin-4-yl)-oxyphenyl)-N′-(3-trifluoromethylphenyl)-urea]"
19,98,Cc1cc(Oc2ccc(NC(=O)Nc3cccc(C(F)(F)F)c3)cc2)ccn1 [Example 30]
20,96,O=C(Nc1ccc(Oc2cc(Nc3ccc(O)cc3)ncn2)cc1)Nc1ccc(OCC(F)(F)F)c(C(F)(F)F)c1 [Example 32]
